From US6737438B2, “Substituted 1,2,4-trioxanes useful as antimalarial agents and a process for the preparation thereof” (Council of Scientific and Industrial Research, priority 2002, dated 2004)

Key:
[1] = system: multidrug resistant strain of Plasmodium yoelii Nigeriensis; assay: Antimalarial activity against multidrug resistant P. yoelii in swiss mice; assay type: in vivo; details: for % Suppression on Day 4: 4 consecutive days (day 0-3), parasitaemia vs vehicle control; for Cured/treated: observed till day 28

melting point | SMILES | % Suppression on Day 4 ([1]; i.m., 96 mg/kg) | Cured/treated ([1]; i.m., 96 mg/kg) | % Suppression on Day 4 ([1]; oral, 96 mg/kg) | Cured/treated ([1]; oral, 96 mg/kg) | % Suppression on Day 4 ([1]; i.m., 48 mg/kg) | Cured/treated ([1]; i.m., 48 mg/kg)
96 to 98 °C | Clc1ccc(-c2ccc(C=CC3COC4(CCCCC4)OO3)cc2)cc1 (stereo not shown) | – | – | – | – | – | –
92 to 95 °C | C(=CC1COC(c2ccccc2)OO1)c1ccc(-c2ccccc2)cc1 (stereo not shown) | – | – | – | – | – | –
102 to 104 °C | Clc1ccc(-c2ccc(C=CC3COC4(CCCC4)OO3)cc2)cc1 (stereo not shown) | – | – | – | – | – | –
– | C=C(c1ccc(-c2ccc(Br)cc2)cc1)C1COC2(CC3CCC2C3)OO1 (stereo not shown) [Trioxane 8f] | 100% | 0/5 | 100% | 5/5 | – | –
– | C(=CC1COC2(CCCC2)OO1)c1ccc(C2CCCCC2)cc1 (stereo not shown) [Trioxane 7bh, 8-[(4′-cyclohexylphenyl)vinyl]-6,7,10-trioxaspiro (4,5) decane] | 100% | 1/4 | 100% | 4/4 | – | –
– | C=C(c1ccc(-c2ccc(Br)cc2)cc1)C1COC2(CCC(C(C)(C)CC)CC2)OO1 (stereo not shown) [Trioxane 7fd] | – | – | 88.39% | 0/5 | 51.09% | 0/5
– | C=C(c1ccc(C2CCCCCCC2)cc1)C1COC2(OO1)C1CC3CC(C1)CC2C3 (stereo not shown) [Trioxane 9d] | 60.12% | 0/5 | 100% | 5/5 | – | –
